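A five-concentration, 48-hour dose response in 96-well plates underlies each endpoint, interpolated linearly between surrounding concentrations. GI50: concentration for 50% inhibition of growth.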 Active and inactive are the calls of the source. No stated cut-off is given here; in the data, active = GI50 up to about 1.1 µM and inactive = higher. Residues, ends and D or L forms follow the SMILES beside them. *: point of attachment. Ethyl(2-NMe3+) = C[N+](C)(C)CC*; Boc = CC(C)(C)OC(=O)*
Legend:
Assay in all cases: DTP human tumour cell line panel, 48 h
RPMI-8226 = system: RPMI-8226
Hs-578T = system: Hs-578T
SNB-19 = system: SNB-19
UO-31 = system: UO-31
T47D = system: T47D
U-251 = system: U-251
SF-539 = system: SF-539
OVCAR-5 = system: OVCAR-5
SN12C = system: SN12C
786-0 = system: 786-0
A498 = system: A498
MDA-MB-231 = system: MDA-MB-231
MCF7 = system: MCF7
LOX IMVI = system: LOX IMVI
NCI-H460 = system: NCI-H460
EKVX = system: EKVX
HCC 2998 = system: HCC 2998
HOP-62 = system: HOP-62
CCRF-CEM = system: CCRF-CEM
SK-MEL-2 = system: SK-MEL-2

| SMILES | GI50 (RPMI-8226) | GI50 (Hs-578T) | GI50 (SNB-19) | GI50 (UO-31) | GI50 (T47D) | GI50 (U-251) | GI50 (SF-539) | GI50 (OVCAR-5) | GI50 (SN12C) | GI50 (786-0) | GI50 (A498) | GI50 (MDA-MB-231) | GI50 (MCF7) | GI50 (LOX IMVI) | GI50 (NCI-H460) | GI50 (EKVX) | GI50 (HCC 2998) | GI50 (HOP-62) | GI50 (CCRF-CEM) | GI50 (SK-MEL-2) |
| --- | --- | --- | --- | --- | --- | --- | --- | --- | --- | --- | --- | --- | --- | --- | --- | --- | --- | --- | --- | --- |
| CC(=O)CCCCC(=O)Nc1ccc(CC(NC(=O)OC(C)(C)C)C(=O)NCC(=O)OCc2ccccc2)cc1 (centres undefined) | 18 µM (inactive) | 16.1 µM (inactive) | 21.9 µM (inactive) | 22.7 µM (inactive) | 19.9 µM (inactive) | 18.7 µM (inactive) | 18.8 µM (inactive) | 63.4 µM (inactive) | 24.7 µM (inactive) | 21.7 µM (inactive) | 23.1 µM (inactive) | 22.5 µM (inactive) | 24.7 µM (inactive) | 15.1 µM (inactive) | 20.7 µM (inactive) | 57.3 µM (inactive) | 16.4 µM (inactive) | 13.8 µM (inactive) |  |  |
| CCCCCC/C=C\CCCCCCCCCC1=C(CN2CCN(C)CC2)C(=O)C=C(OC)C1=O | 2 µM (inactive) | 6.03 µM (inactive) | 11.8 µM (inactive) | 3.03 µM (inactive) | 2.28 µM (inactive) |  | 15.4 µM (inactive) | 15.2 µM (inactive) | 4.37 µM (inactive) | 1.67 µM (inactive) | 17.5 µM (inactive) | 9.53 µM (inactive) | 4.3 µM (inactive) | 3.8 µM (inactive) | 5.73 µM (inactive) | 13.6 µM (inactive) | 7.6 µM (inactive) | 15.6 µM (inactive) | 0.465 µM (active) |  |
| COc1cccc([C@H]2CC(=O)c3cc4c(cc3N2)OCO4)c1 | 0.579 µM (active) | 0.216 µM (active) | 0.312 µM (active) | 0.485 µM (active) | > 100 µM (inactive) | 0.393 µM (active) | 0.274 µM (active) | 0.441 µM (active) | 0.394 µM (active) | 0.418 µM (active) | 0.75 µM (active) | 0.424 µM (active) | 0.552 µM (active) | 0.714 µM (active) | 0.411 µM (active) |  | 0.434 µM (active) | 0.568 µM (active) | 0.49 µM (active) | 0.578 µM (active) |
| CC(NC(=O)C(Cc1ccc(OCC[N+](C)(C)C)cc1)NC(=O)OC(C)(C)C)C(=O)NC(Cc1ccccc1)C(=O)NCC(N)=O (centres undefined) (Boc-Y(Ethyl(2-NMe3+))AFG-NH2; configuration not given here) | > 100 µM (inactive) | 22.4 µM (inactive) | 13.2 µM (inactive) | 65.3 µM (inactive) | 43.8 µM (inactive) | 3.24 µM (inactive) | 11.4 µM (inactive) | 25.1 µM (inactive) | 37.2 µM (inactive) | 10.4 µM (inactive) | 13.4 µM (inactive) | 2.75 µM (inactive) | > 100 µM (inactive) | 30.4 µM (inactive) | 70.5 µM (inactive) |  | 16.5 µM (inactive) | 2.44 µM (inactive) |  | 11.9 µM (inactive) |
| CCOC(=O)c1nc2cc(C(F)(F)F)ccc2nc1Nc1ccc(OC)c(OC)c1 | > 100 µM (inactive) | 41.7 µM (inactive) | > 100 µM (inactive) | > 100 µM (inactive) | 71.3 µM (inactive) |  | > 100 µM (inactive) | > 100 µM (inactive) | > 100 µM (inactive) | > 100 µM (inactive) | > 100 µM (inactive) | > 100 µM (inactive) | > 100 µM (inactive) | > 100 µM (inactive) | > 100 µM (inactive) | > 100 µM (inactive) | > 100 µM (inactive) | 32 µM (inactive) | > 100 µM (inactive) |  |
| Cn1c2ccccc2n2c(=O)c(-c3ccc(Cl)cc3)nnc12 |  | > 100 µM (inactive) | > 100 µM (inactive) | > 100 µM (inactive) | > 100 µM (inactive) | > 100 µM (inactive) | 43.3 µM (inactive) | > 100 µM (inactive) | > 100 µM (inactive) | > 100 µM (inactive) | > 100 µM (inactive) | 51.2 µM (inactive) | > 100 µM (inactive) | > 100 µM (inactive) | > 100 µM (inactive) | > 100 µM (inactive) | > 100 µM (inactive) |  | > 100 µM (inactive) | 83.4 µM (inactive) |

Reference: ChEMBL document CHEMBL1201862, “PubChem BioAssay data set” (2004)
